Assay results as given in patent publication US20190343908A1, “Therapeutic Combination for the Treatment of Cancer” (Nerium Biotechnology Inc., priority 2011, published 2019).

Columns and labels:
HT55 (colorectal cancer) = test: Methyl-Tetrazolium viability assay, HT55; type: cell-based, human; parameters: key: absorbance (optical density) at 570 nm, second wavelength subtracted
Source text: (§1) Three different viability assays were chosen to complement each other and yielded results dependent on concentration and cell line: the Methyl Tetrazolium dye assay, the Sulforhodamine B fluorescent dye assay, and the Crystal Violet dye assay.
The Methyl-Tetrazolium dye assay measures the activity of enzymes in mitochondria. The dye precursor is taken up by cells, where it undergoes reduction to the purple formazan. It measures only the mitochondrial activity and, thus, it is not always a reliable indication of whether the cells themselves are alive or dead, since even a recently dead cell has […] enzyme activity in mitochondria. Intracellular glucose concentration, pH, and time before assay all affect the measurements.
(§2) The Methyl Tetrazolium, Sulforhodamine B, and Crystal Violet assays were used to assess cell viabilities. The incubation times were 24 hours, 48 hours, and 72 hours. The Nerium oleander extract Anvirzel™ (a hot water extract of oleander obtained from Salud Integral, Honduras) was tested in concentrations ranging from 0.01 ng/mL to 10 ng/mL.
(§3) Cells were detached by trypsinization (Trypsin-0.25% EDTA, Invitrogen, 25200-072) during the logarithmic phase of culture growth and plated in 96-well plates (18.000 cells/well) (Corning, Costar 359) in a final volume of 200 μl of medium per well. […] The absorbance was measured after 24 hours, 48 hours, and 72 hours of incubation.
For the Methyl-Tetrazolium assay, the dye (Sigma, M2128; 5 mg/mL, diluted in phosphate-buffered saline) was added to each well and plates were incubated for 3 hours at 37° C. After the end of the incubation period, the medium was discarded and the cells were rinsed with phosphate-buffered saline. Finally, the formazan crystals were dissolved in dimethylsulphoxide (Sigma, D4540).
(§4) The optical density of each plate was measured on a μQuant spectrophotometer and the data were analyzed with Gen5 software (μQuant Biomolecular Spectrophotometer MQX200 and Gen5™ Microplate Data Collection & Analysis software, BioTek® Instruments. Inc, April 2008). Absorbance was measured at 570 nm for all assays and a second wavelength was measured in order to subtract noise. For the Methyl-Tetrazolium assay this second wavelength was 630 nm and for the Sulforhodamine B and Crystal Violet assays it was 690 nm.

[1] = tested on: COLO699N lung cancer cell line; test: Sulforhodamine B viability assay, COLO699N; type: cell-based, human; parameters: key to SRB Average: absorbance (optical density) at 570 nm, second wavelength subtracted; settings: for Average SRB 24 h / Average SRB 48 h / Average SRB 72 h: COLO699N Run 1; for ABSORBANCE: COLO699N, 0.1 μg/mL cisplatin
Source text: as §1
The Sulforhodamine B and Crystal Violet assays provide information about protein and were used to complement the Methyl-Tetrazolium dye assay. […] It is used for the quantification of cellular proteins of cultured cells. The assay using Crystal Violet, a dye that binds electrostatically to proteins and stains DNA, provides a reliable, simple assay for measuring viability of cells.
as §2, §3
For the Sulforhodamine B assay, 96-well plates were fixed by 10% trichloroacetic acid (Fluka, 91228) and were incubated at 4° C. for 1 hour. Afterwards, plates were rinsed with water and cells were stained with 0.4% Sulforhodamine B (Sigma, 341738), dissolved in 1% acetic acid (Carlo Ebra, 401422) for 15 minutes at room temperature (RT). The unbound stain was washed twice with 1% acetic acid. Finally, 10 mM Tris Buffer pH 10.5 (Sigma, T6791) was added to dissolve the dye.
as §4

Compound: N.N.[Cl][Pt][Cl] [cisplatin]
- MTT Average (HT55 (colorectal cancer); HT55, Run 1, 24 h, 0.1 μg/ml CDDP): 0.096
- MTT Average (HT55 (colorectal cancer); HT55, Run 1, 24 h, 1 μg/ml CDDP): 0.02
- MTT Average (HT55 (colorectal cancer); HT55, Run 1, 24 h, 10 μg/ml CDDP): 0.054
- MTT Average (HT55 (colorectal cancer); HT55, Run 1, 24 h, 100 μg/ml CDDP): 0.019
- MTT Average (HT55 (colorectal cancer); HT55, Run 1, 48 h, 0.1 μg/ml CDDP): 0.177
- MTT Average (HT55 (colorectal cancer); HT55, Run 1, 48 h, 1 μg/ml CDDP): 0.015
- MTT Average (HT55 (colorectal cancer); HT55, Run 1, 48 h, 10 μg/ml CDDP): 0.03
- MTT Average (HT55 (colorectal cancer); HT55, Run 1, 48 h, 100 μg/ml CDDP): 0.012
- MTT Average (HT55 (colorectal cancer); HT55, Run 1, 72 h, 0.1 μg/ml CDDP): 0.315
- MTT Average (HT55 (colorectal cancer); HT55, Run 1, 72 h, 1 μg/ml CDDP): 0.025
- MTT Average (HT55 (colorectal cancer); HT55, Run 1, 72 h, 10 μg/ml CDDP): 0.026
- MTT Average (HT55 (colorectal cancer); HT55, Run 1, 72 h, 100 μg/ml CDDP): 0.017
- MTT Average (HT55 (colorectal cancer); HT55 Run 2, 24 h, 0.1 μg/ml CDDP): 0.215
- MTT Average (HT55 (colorectal cancer); HT55 Run 2, 24 h, 1 μg/ml CDDP): 0.023
- MTT Average (HT55 (colorectal cancer); HT55 Run 2, 24 h, 10 μg/ml CDDP): 0.053
- MTT Average (HT55 (colorectal cancer); HT55 Run 2, 24 h, 100 μg/ml CDDP): 0.018
- MTT Average (HT55 (colorectal cancer); HT55 Run 2, 48 h, 0.1 μg/ml CDDP): 0.381
- MTT Average (HT55 (colorectal cancer); HT55 Run 2, 48 h, 1 μg/ml CDDP): 0.028
- MTT Average (HT55 (colorectal cancer); HT55 Run 2, 48 h, 10 μg/ml CDDP): 0.031
- MTT Average (HT55 (colorectal cancer); HT55 Run 2, 48 h, 100 μg/ml CDDP): 0.025
- MTT Average (HT55 (colorectal cancer); HT55 Run 2, 72 h, 0.1 μg/ml CDDP): 0.488
- MTT Average (HT55 (colorectal cancer); HT55 Run 2, 72 h, 1 μg/ml CDDP): 0.032
- MTT Average (HT55 (colorectal cancer); HT55 Run 2, 72 h, 10 μg/ml CDDP): 0.028
- MTT Average (HT55 (colorectal cancer); HT55 Run 2, 72 h, 100 μg/ml CDDP): 0.021
- MTT Average (HT55 (colorectal cancer); HT55 Run 3, 24 h, 0.1 μg/ml CDDP): 0.205
- MTT Average (HT55 (colorectal cancer); HT55 Run 3, 24 h, 1 μg/ml CDDP): 0.035
- MTT Average (HT55 (colorectal cancer); HT55 Run 3, 24 h, 10 μg/ml CDDP): 0.206
- MTT Average (HT55 (colorectal cancer); HT55 Run 3, 24 h, 100 μg/ml CDDP): 0.028
- MTT Average (HT55 (colorectal cancer); HT55 Run 3, 48 h, 0.1 μg/ml CDDP): 0.331
- MTT Average (HT55 (colorectal cancer); HT55 Run 3, 48 h, 1 μg/ml CDDP): 0.04
- MTT Average (HT55 (colorectal cancer); HT55 Run 3, 48 h, 10 μg/ml CDDP): 0.361
- MTT Average (HT55 (colorectal cancer); HT55 Run 3, 48 h, 100 μg/ml CDDP): 0.038
- MTT Average (HT55 (colorectal cancer); HT55 Run 3, 72 h, 0.1 μg/ml CDDP): 0.359
- MTT Average (HT55 (colorectal cancer); HT55 Run 3, 72 h, 1 μg/ml CDDP): 0.032
- MTT Average (HT55 (colorectal cancer); HT55 Run 3, 72 h, 10 μg/ml CDDP): 0.353
- MTT Average (HT55 (colorectal cancer); HT55 Run 3, 72 h, 100 μg/ml CDDP): 0.031
- Average SRB 24 h ([1]; 0.1 μg/ml CDDP): 1.552
- Average SRB 48 h ([1]; 0.1 μg/ml CDDP, 48 h): 1.317
- Average SRB 72 h ([1]; 0.1 μg/ml CDDP, 72 h): 1.658
- Average SRB 24 h ([1]; 1 μg/ml CDDP): 1.526
- Average SRB 48 h ([1]; 1 μg/ml CDDP, 48 h): 1.388
- Average SRB 72 h ([1]; 1 μg/ml CDDP, 72 h): 1.152
- Average SRB 24 h ([1]; 10 μg/ml CDDP): 1.384
- Average SRB 48 h ([1]; 10 μg/ml CDDP, 48 h): 1.524
- Average SRB 72 h ([1]; 10 μg/ml CDDP, 72 h): 0.922
- Average SRB 24 h ([1]; 100 μg/ml CDDP): 1.085
- Average SRB 48 h ([1]; 100 μg/ml CDDP, 48 h): 1.452
- Average SRB 72 h ([1]; 100 μg/ml CDDP, 72 h): 1.114
- ABSORBANCE ([1]; 48 h): 1.975
- ABSORBANCE ([1]; 72 h): 2.145
- SRB Average ([1]; Run 2, 24 h, 0.1 μg/ml CDDP): 1.709
- SRB Average ([1]; Run 2, 24 h, 1 μg/ml CDDP): 1.61
- SRB Average ([1]; Run 2, 24 h, 10 μg/ml CDDP): 1.523
- SRB Average ([1]; Run 2, 24 h, 100 μg/ml CDDP): 1.354
- SRB Average ([1]; Run 2, 48 h, 0.1 μg/ml CDDP): 1.975
- SRB Average ([1]; Run 2, 48 h, 1 μg/ml CDDP): 1.253
- SRB Average ([1]; Run 2, 48 h, 10 μg/ml CDDP): 1.27
- SRB Average ([1]; Run 2, 48 h, 100 μg/ml CDDP): 1.256
- SRB Average ([1]; Run 2, 72 h, 0.1 μg/ml CDDP): 2.145
- SRB Average ([1]; Run 2, 72 h, 1 μg/ml CDDP): 1.256
- SRB Average ([1]; Run 2, 72 h, 10 μg/ml CDDP): 1.524
- SRB Average ([1]; Run 2, 72 h, 100 μg/ml CDDP): 1.312
- SRB Average ([1]; Run 3, 24 h, 0.1 μg/ml CDDP): 1.99
- SRB Average ([1]; Run 3, 24 h, 1 μg/ml CDDP): 1.839
- SRB Average ([1]; Run 3, 24 h, 10 μg/ml CDDP): 1.527
- SRB Average ([1]; Run 3, 24 h, 100 μg/ml CDDP): 1.387
- SRB Average ([1]; Run 3, 48 h, 0.1 μg/ml CDDP): 1.978
- SRB Average ([1]; Run 3, 48 h, 1 μg/ml CDDP): 1.092
- SRB Average ([1]; Run 3, 48 h, 10 μg/ml CDDP): 1.259
- SRB Average ([1]; Run 3, 48 h, 100 μg/ml CDDP): 1.218
- SRB Average ([1]; Run 3, 72 h, 0.1 μg/ml CDDP): 1.946
- SRB Average ([1]; Run 3, 72 h, 1 μg/ml CDDP): 1.249
- SRB Average ([1]; Run 3, 72 h, 10 μg/ml CDDP): 1.014
- SRB Average ([1]; Run 3, 72 h, 100 μg/ml CDDP): 1.033
